The text below walks through data of patent US7387998B2, “STQ peptides” (New York University, priority 2003, dated 2008).

Where a SMILES comes first, the peptide text is derived from it.

Series [1] relates to RPE cells on native laminin. Description: RPE cell adhesion to native laminin. Type of series: cell-based, human. As to conditions: any concentration of STQ-peptide tested (FIG. 3). How it is done: (§1) Human denatured laminin (25 μg/ml) was immobilized on 48-well non-tissue culture treated plates. Wells were washed and incubated with 1% BSA (bovine serum albumin) in PBS (phosphate-buffered saline) for one hour at 37° C. Subconfluent RPE cells were harvested, washed, and resuspended in adhesion buffer containing RPMI-1640 medium, 1 mM MgCl2, 0.2 mM MnCl2, and 0.5% BSA. RPE cells (10^5) were resuspended in 200 μl of the adhesion buffer in the presence or absence of STQ-peptide at a concentration of 100 μg/ml or 200 μg/ml, and were added to each well and allowed to attach for 30 minutes at 37° C. The unattached cells were removed and the attached cells were stained for 10 minutes with crystal violet as described by Petitclerc, et al., Cancer Res. 1999; 59:2724-2730. The wells were washed three times with PBS and cell-associated crystal violet was eluted by addition of 100 μl of 10% acetic acid. Cell adhesion was quantified by measuring the optical density of eluted crystal violet at a wavelength of 600 nm.
A set of non-tissue culture treated 48-well plates were coated with native laminin in the presence of different concentrations of STQ-peptide according to the method described in Example 2 and by Petticlerc, et al., Cancer Res. 1999; 59:2724-2730. […]

The subject of series [2] is bFGF-induced angiogenesis in chorioallantoic membrane (CAM). As to the kind of experiment: bFGF-induced angiogenesis in the chick CAM model. Type of series: in vivo. As to conditions: single intravenous injection 100 ug/embryo. The source says: One angiogenesis assay measures angiogenesis in the chick chorioallantoic membrane (CAM) and is referred to as the CAM assay. The CAM assay is well known among those of ordinary skill in the art and has been used to measure both angiogenesis and neovascularization of tumor tissues (Ausprunk et al., Am. J. Pathol. 1975; 79:597-618 and Ossonski et al., Cancer Res. 1980; 40:2300-2309).
Angiogenesis was induced within the chorioallantoic membrane (CAM) of 10-day old chick embryos with bFGF. Twenty-four hours later, 8-10 of the embryos were treated with a single intravenous injection of STQ-peptide (100 ug/embryo). At the end of a 3-day incubation period, the CAM tissues were removed for analysis. […] The single injection of STQ-peptide inhibited bFGF by greater than 95% (FIG. 4). […] Eight to ten chick embryos were tested in each of the two groups, and the experiment was repeated three times for a total of 24-30 chick embryos tested.

Series [3] concerns metastatic B16 melanoma cells. As to the kind of experiment: B16 melanoma metastasis in chick embryo lungs. Type of series: in vivo. As to conditions: 100 ug/embryo intravenously with cells; 7 days incubation; versus no-STQ-peptide group. How it is done:
Twelve-day old chick embryos (obtained from SPAFAS, North Franklin, Conn.) were injected intravenously with metastatic B16 melanoma cells (Chambers, et al., J. Natl. Cancer Inst. 1992; 84:797-803) in the presence or absence of STQ-peptide (100 ug/embryo). For each experiment, eight to ten chicks were tested under each set of conditions, and the experiment was repeated three times. The embryos were incubated for 7 days and then sacrificed. The chick lungs were analyzed for metastasis. B16 melanoma metastases appeared as discrete black lesions. The metastases were quantified by counting the B16 tumor lesions on the surface of the chick lungs for the STQ-peptide and no-STQ-peptide groups. B16 melanoma metastasis was inhibited by greater than 95% in the STQ-peptide group as compared to the no-STQ-peptide group (FIG. 5).

The subject of series [4] is Human RPE cells on denatured laminin. As to the kind of experiment: RPE cell adhesion to denatured laminin. As to conditions: for blockade of RPE cell adhesion to denatured laminin: 30 min attachment, crystal violet OD 600 nm. Type of series: cell-based. As for the experimental part: In vitro cell adhesion assays were conducted to determine whether the STQ-peptides bind to functional epitopes within denatured laminin that regulate cellular adhesion. Non-tissue culture treated 48-well plates were coated with denatured laminin. Human RPE cells were allowed to attach to the coated wells in the absence of STQ-peptide, in the presence of STQ-peptide at a concentration of 100 μg/ml, and in the presence of STQ-peptide at a concentration of 200 μg/ml.
as §1
A set of non-tissue culture treated 48-well plates were coated with native laminin in the presence of different concentrations of STQ-peptide according to the method described in Example 2 and by Petticlerc, et al., Cancer Res. 1999; 59:2724-2730. Another set of non-tissue culture treated plates were coated with denatured laminin in the presence of different concentrations of STQ-peptide. […] STQ-peptide had little effect on RPE cell adhesion to the wells coated with native laminin at any concentration of STQ-peptide tested (FIG. 3).

In series [5] the test system is murine B16 melanoma cells on denatured laminin. As to the kind of experiment: B16 melanoma cell adhesion to denatured laminin. As to conditions: STQ-peptide-S 50 μg/ml. The format is cell-based. How it is done: as §1
(§2) An adhesion assay was performed according to the method described in Example 2 and by Petticlerc, et al., Cancer Res. 1999; 59:2724-2730. Non-tissue culture treated 48-well plates were coated with denatured laminin in the absence of STQ-peptide-S and in the presence of STQ-peptide-S at a concentration of 50 μg/ml. […]

Series [6] relates to Human M21 melanoma cells on denatured laminin. As to the kind of experiment: M21 melanoma cell adhesion to denatured laminin. The format is cell-based. As to conditions: STQ-peptide-S 50 μg/ml. As for the experimental part:
as §1, §2

On to `CC[C@H](C)[C@H](NC(=O)[C@H](CC(C)C)NC(=O)[C@H](CO)NC(=O)[C@H](CC(C)C)NC(=O)[C@H](CC(C)C)NC(=O)[C@H](CCC(N)=O)NC(=O)[C@H](C)NC(=O)[C@H](CC(N)=O)NC(=O)[C@H](CCC(N)=O)NC(=O)[C@@H](NC(=O)[C@H](CO)NC(=O)[C@H](CS)NC(=O)CNC(=O)CNC(=O)[C@@H](N)CCCCN)[C@@H](C)O)C(=O)N[C@H](C(=O)NCC(=O)N[C@@H](CCCCN)C(=O)N[C@@H](C)C(=O)O)C(C)C` [STQ-peptide, NH2-K-G-G-C-S-T-Q-N-A-Q-L-L-S-L-I-V-G-K-A-COOH] (H-KGGCSTQNAQLLSLIVGKA-OH), for which the “effect on RPE cell adhesion to wells coated with native laminin” value in series [1] is recorded as “little effect”. Further, the “adverse effects following injection” value in series [2] (chick embryos) is “No adverse effects”. Moreover, in series [2] (24 h after bFGF, 3-day incubation), the “inhibition of bFGF-induced angiogenesis (branching vessels)” value is listed as “greater than 95%”. For the same molecule, the “inhibition of B16 melanoma metastasis (lung surface lesions)” value in series [3] is “greater than 95%”. Besides, the “blockade of RPE cell adhesion to denatured laminin” value in series [4] (STQ-peptide 100 μg/ml) and in series [4] (STQ-peptide 200 μg/ml) was “greater than 95%” each time. Moreover, in series [4] (different concentrations of STQ-peptide (FIG. 3)), the “inhibition of RPE cell adhesion to wells coated with denatured laminin” value is recorded as “concentration dependent inhibition”.
Consider “NH2-K-G-G-S-T-Q-N-A-Q-L-L-S-L-I-V-G-K-A-COOH (H-KGGSTQNAQLLSLIVGKA-OH) [STQ-peptide-S]”, for which the “blockade of B16 melanoma cell adhesion to denatured laminin” value in series [5] was “approximately 80%”. Also, the “blockade of M21 melanoma cell adhesion to denatured laminin” value in series [6] is “approximately 80%”.
